# Results from ChEMBL document CHEMBL1129437, “New purines and purine analogs as modulators of multidrug resistance” (J Med Chem, 1996).
# Assays:
# [1] = tested on: P388
# Description: Percent of cell viability of P388/VCR-20 murine leukemia cells remaining after inoculation with the modulator alone
# [2] = tested on: Mus musculus; assay: Ratio of survival time of mice treated with VCR (0.25 mg/kg ip)+modulator given at the optimal dose of 100 mg/kg po/survival time of mice treated with VCR alone.; assay type: functional
# [3] = tested on: KB
# Description: Percent of cell viability of KB-A1 human epidermoid carcinoma remaining after inoculation with the modulator alone
# [4] = tested on: Mus musculus; assay: Ratio of survival time of mice treated with VCR (0.25 mg/kg ip)+modulator given at the optimal dose of 50 mg/kg po/survival time of mice treated with VCR alone.; assay type: functional
# [5] = tested on: Mus musculus; assay: Ratio of survival time of mice treated with VCR (0.25 mg/kg ip)+modulator given at the optimal dose of 200 mg/kg po/survival time of mice treated with VCR alone.; assay type: functional
# [6] = tested on: Mus musculus; assay: Ratio of survival time of mice treated with VCR (0.25 mg/kg ip)+modulator given at the optimal dose of 100 mg/kg po/survival time of mice treated with VCR alone; assay type: functional
SMILES,Viability [1] [%],T/V [2],Viability [3] [%],T/V [4],T/V [5],T/V ([2]; 100 mg/kg),T/V [6]
C=CCNc1nc(N2CCC(NCC3c4ccccc4N(CCC)S(=O)(=O)c4ccccc43)CC2)nc2c1ncn2CC=C (stereo unspecified),96,1.21,145,,,,
C=CCNc1nc(N2CCN(C(c3ccc(F)cc3)c3ccc(F)cc3)CC2)nc2ncn(CC=C)c12,97,,104,,,,
C=CCNc1nc(N2CCC(NCC3c4ccccc4CCc4ccccc43)CC2)nc2c1nnn2CC=C,83,1.17,84,,,,
C=CCNc1nc(N2CCC(NCC3c4ccccc4C=Cc4ccccc43)CC2)c2ncn(CC=C)c2n1,119,1.17,102,,,,
C=CCNc1nc(N2CCC(NCC(c3ccccc3)(c3ccccc3)c3ccccc3)CC2)nc2c1ncn2CC=C,119,1.3,127,,,,
C=CCNc1nc(N2CCC(NCC3c4ccccc4CCc4ccccc43)CC2)nc2c1cnn2CC=C,74,1.31,132,,,,
C=CCNc1nc(N2CCC(NCC3c4ccccc4C=Cc4ccccc43)CC2)nc2c1ncn2CC=C,111,,110,1.21,,,
C=CCNc1nc(N2CCC(NC3c4ccccc4CCc4ccccc43)CC2)nc2c1ncn2CC=C,111,,111,,,,
C=CCNc1nc(N2CCC(NCC3CCCCc4ccccc43)CC2)nc2c1ncn2CC=C (stereo unspecified),123,,122,1.2,,,
C=CCNc1nc(N2CCC(NCC3c4ccccc4CCc4ccccc43)CC2)c2ncn(CC=C)c2n1,112,1.19,95,,,,
C=CCNc1nc(N2CCC(NCC(c3ccccc3)c3ccccc3)CC2)nc2c1ncn2CC=C,93,1.3,115,,,,
C=CCn1cnc2c(NCCC)nc(N3CCC(NCC4c5ccccc5CCc5ccccc54)CC3)nc21,103,,112,1.38,,,
C=CCNc1nc(N2CCC(NCc3cccc4ccccc34)CC2)c2ncn(CC=C)c2n1,104,1.31,106,,,,
C=CCNc1nc(N2CCN(C(c3ccc(F)cc3)c3ccc(F)cc3)CC2)nc2c1ncn2CC=C,99,,103,,,,
C=CCNc1nc(N2CCC(NCC3c4ccccc4CCc4cc(OC)ccc43)CC2)nc2c1ncn2CC=C (stereo unspecified),114,1.54,108,,,,
C=CCNc1nc(N2CCC(NCC3c4ccccc4CCc4ccccc43)CC2)nc2c1ccn2CC=C,126,1.24,86,,,,
C=CCn1ncc2c(NCCC)nc(N3CCC(NCC4c5ccccc5CCc5cc(OC)ccc54)CC3)nc21 (stereo unspecified),98,1.3,86,,,,
C=CCNc1nc(N2CCC(NCC3c4ccccc4COc4ccccc43)CC2)nc2c1ncn2CC=C (stereo unspecified),95,1.36,108,,,,

SMILES,Viability [1] [%],T/V [2],Viability [3] [%],T/V [4],T/V [5],T/V ([2]; 100 mg/kg),T/V [6]
C=CCNc1nc(N2CCC(NCC(c3ccc(F)cc3)c3ccc(F)cc3)CC2)c2ncn(CC=C)c2n1,108,,106,,,,
C=CCNc1nc(N2CCC(NCC3Cc4ccccc4Cc4ccccc43)CC2)nc2c1ncn2CC=C (stereo unspecified),98,1.42,104,,,,
C=CCNc1nc(NCC=C)nc(N2CCC(NCC(c3ccc(F)cc3)c3ccc(F)cc3)CC2)n1,93,,111,,1.19,,
C=CCNc1nc(N2CCC(NC3c4ccccc4N(C)S(=O)(=O)c4cc(Cl)ccc43)CC2)nc2c1ncn2CC=C (stereo in doubt; 12),135,,64,,,1.11,
C=CCNc1nc(N2CCC(NCC3c4ccccc4COc4ccccc43)CC2)c2ncn(CC=C)c2n1 (stereo unspecified),91,,110,,,,
C=CCNc1nc(N2CCC(NCC3c4ccccc4N(C)S(=O)(=O)c4cc(Cl)ccc43)CC2)nc2c1ncn2CC=C (stereo unspecified),70,1.13,121,,,,
C=CCNc1nc(N2CCC(NCC3c4ccccc4N(C)S(=O)(=O)c4cc(Cl)ccc43)CC2)c2ncn(CC=C)c2n1 (stereo unspecified),89,,141,,,,1.03
C=CCNc1nc(N2CCC(NC3c4ccccc4CCc4ccccc43)CC2)c2ncn(CC=C)c2n1,120,,119,,,,
C=CCNc1nc(N2CCC(NCc3cccc4ccccc34)CC2)nc2c1ncn2CC=C,80,1.33,110,,,,
C=CCNc1nc(N2CCC(NCC3c4ccccc4NC(=O)c4ccccc43)CC2)nc2c1ncn2CC=C (stereo unspecified),106,1.13,126,,,,
C=CCNc1nc(N2CCC(NCC3c4ccccc4CCc4cc(OC)c(OC)c(OC)c43)CC2)nc2c1ncn2CC=C (stereo unspecified),96,1.16,86,,,,
C=CCNc1nc(N2CCC(NCC3c4ccccc4CCc4cc(OC)ccc43)CC2)nc2c1cnn2CC=C (stereo unspecified),90,1.18,103,,,,
C=CCNc1nc(N2CCC(NCC3c4ccccc4CCc4ccccc43)CC2)nc2c1ncn2CCC,102,1.31,107,,,,
C=CCNc1nc(N2CCC(NC3c4ccccc4N(C)S(=O)(=O)c4cc(Cl)ccc43)CC2)nc2c1ncn2CC=C (stereo in doubt; 11),146,,60,,,1.27,
CCCNc1nc(N2CCC(NCC3c4ccccc4CCc4ccccc43)CC2)nc2c1ncn2CCC,98,1.57,127,,,,
C=CCNc1nc(N2CCN(C(c3ccc(F)cc3)c3ccc(F)cc3)CC2)c2ncn(CC=C)c2n1,98,,73,,,,
C=CCNc1nc(N2CCC(NCC3c4ccccc4CCc4cc(OC)ccc43)CC2)c2ncn(CC=C)c2n1 (stereo unspecified),131,1.06,91,,,,
C=CCNc1nc(N2CCC(NCC(c3ccc(F)cc3)c3ccc(F)cc3)CC2)nc2c1ncn2CC=C,95,1.49,120,,,,
